≈ marks a conversion by molar mass, not a printed value.
How the values were obtained:
[1] = Plasma levels after transdermal administration to hairless mice; format: in vivo; details: for t, time to peak plasma level after parent compound: parent compound administered (time when taken orally); for Peak plasma concentration after parent compound: parent compound administered, hairless mice
Description: Tested compounds (20% solution or suspension in 1 mL isopropanol) are administered transdermally to the skin of intact hairless mice. The plasma levels of the parent compounds are determined by HPLC.

[2] = test system: human skin tissue; details: human, 20 %, pH 7.4
[3] = Solubility in water / aqueous solubility of HPPs and parent drugs; details: water
[4] = test system: rat; details: rats;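 note: acute toxicity in rats expressed as LD50, determined for both prodrugs and their parent compounds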
Description: The acute toxicity of the prodrug compounds and parent compounds are measured by LD50 of rat.

Structure (SMILES) | t, time to peak plasma level after parent compound [1] [h] | Peak plasma concentration after parent compound [1] [mg/L] | In vitro penetration rate (apparent flux), parent compounds [2] [μg/cm^2/h] | solubility [3] [mg/mL] | LD50 of HPP [4] [mg/kg]
Cc1cc(NC(=O)C2=C(O)c3ccccc3S(=O)(=O)N2C)no1 [Isoxicam, isoxicam, reference compound] | 2 to 4 | 0.1 | <1 | < 0.1 | –
O=C(c1ccccc1)c1ccc2n1CCC2C(=O)O (stereo not shown) [Ketorolac, ketorolac, reference compound] | 2 to 4 | 10 | 30 | 0.1 (≈ 392 µM) | –
CN1C(C(=O)Nc2ccccn2)=C(O)c2sc(Cl)cc2S1(=O)=O [Lornoxicam, lornoxicam, reference compound] | 2 to 4 | 0.1 | <1 | < 0.1 | –
CC(C(=O)O)c1ccc(CC2CCCC2=O)cc1 (stereo not shown) [Loxoprofen, loxoprofen, reference compound] | 2 to 4 | 10 | 30 | 0.1 (≈ 406 µM) | –
Cc1ccc(Cl)c(Nc2ccccc2C(=O)O)c1Cl [Meclofenamic acid, meclofenamic acid, reference compound] | 2 to 4 | 0.1 | 10 | < 0.1 | –
Cc1cnc(NC(=O)C2=C(O)c3ccccc3S(=O)(=O)N2C)s1 [Meloxicam, meloxicam, reference compound] | 2 to 4 | 0.1 | <1 | < 0.1 | –
O=C(O)CCc1nc(-c2ccccc2)c(-c2ccccc2)o1 [Oxaprozin, oxaprozin, reference compound] | 2 to 4 | 10 | 30 | 0.1 (≈ 341 µM) | –
CC(C(=O)O)c1ccc(N2CC=CC2)c(Cl)c1 (stereo not shown) [Pirprofen, pirprofen, reference compound] | 2 to 4 | 10 | 30 | 0.1 (≈ 397 µM) | –
CC(C(=O)O)c1ccc(C(=O)c2cccs2)cc1 (stereo not shown) [Suprofen, suprofen, reference compound] | 2 to 4 | 10 | 30 | 0.1 (≈ 384 µM) | –
CC(C(=O)O)c1ccc(C(=O)c2ccccc2)s1 (stereo not shown) [Tiaprofenic acid, tiaprofenic acid, reference compound] | 2 to 4 | 10 | 30 | 0.1 (≈ 384 µM) | –
CC(C(=O)O)c1ccc2c(c1)CC(=O)c1ccccc1S2 (stereo not shown) [Zaltoprofen, zaltoprofen, reference compound] | 2 to 4 | 10 | 30 | 0.1 (≈ 335 µM) | –
CC(=O)O.CC(C)Cc1ccc(C(C)C(=O)OCCN(C)C)cc1 (stereo not shown) [dimethylaminoethyl 2-(ρ-isobutylphenyl) propionate.AcOH] | – | – | – | – | 1600
CC(=O)Oc1ccccc1C(=O)OCCN(C)C [dimethylaminoethyl acetylsalicylate.AcOH] | – | – | – | – | 2200
